Experimental data reported in US4110327A, “2,3 Diketo-piperazinocarbonylamino alkanoic acids and derivatives” (Toyama Chemical Co., Ltd., priority 1974, dated 1978).
In brackets after ≈: the same amount, converted by molar mass.

Columns and labels:
[1] = Acute toxicity LD50 i.v. in mouse; conditions: in vivo, iv
Excerpt: The present penicillins and cephalosporins have generally low toxicity.

Proteus rettgeri = assay: MIC against clinical isolates; format: cell-based; conditions: clinical isolate, unit assumed
Proteus vulgaris = assay: MIC against clinical isolates; format: cell-based; conditions: clinical isolate, unit assumed
Proteus mirabilis = assay: MIC against clinical isolates; format: cell-based; conditions: clinical isolate, unit assumed
Staphylococcus aureus = assay: MIC against clinical isolates; format: cell-based; conditions: unit assumed
Salmonella typhi-murium = assay: MIC against clinical isolates; format: cell-based; conditions: unit assumed
Shigella flexneri = assay: MIC against clinical isolates; format: cell-based; conditions: clinical isolate JS 11215; unit assumed
Description: (§1) The minimum inhibitory concentrations (MIC) was determined by the plate method disclosed in "Chemotherapy" (Japan), Vol. 16, (1968), pages 98 - 99. The culture medium used was a Heart infusion agar (pH 7.4). The number of the cells per plate used in the inoculum as 10^4 (10^6 cells/ml).
(§2) MIC was determined in the same manner as in the preceding paragraph (1).

Shigella sonnei = assay: MIC against clinical isolates; format: cell-based; conditions: unit assumed
Description: as §1, §2

Proteus vulgaris 3027 = assay: MIC against standard strain, plate method; format: cell-based; conditions: Proteus vulgaris 3027, standard strain; unit assumed
Outline: (§3)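 Heart infusion agar (pH 7.4) plates; inoculum 10^4 cells/plate (10^6 cells/ml suspension); MIC read by plate method.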

Escherichia coli NIHJ = assay: MIC against standard strain, plate method; format: cell-based; conditions: unit assumed
Outline: as §3

Klebsiella pneumoniae [2] = assay: MIC against standard strain, plate method; format: cell-based; conditions: unit assumed
Outline: as §3

[3] = system: Pseudomonas aeruginosa I.F.O.; assay: MIC against standard strain, plate method; format: cell-based; conditions: unit assumed
Outline: as §3

[4] = system: Staphylococcus aureus 209p; assay: MIC against standard strain, plate method; format: cell-based; conditions: unit assumed
Outline: as §3

Escherichia coli = assay: MIC against clinical isolates; format: cell-based; conditions: unit assumed
Klebsiella pneumoniae [5] = assay: MIC against clinical isolates; format: cell-based; conditions: unit assumed
Salmonella typhi = assay: MIC against clinical isolates; format: cell-based; conditions: unit assumed
Pseudomonas aeruginosa = assay: MIC against clinical isolates; format: cell-based; conditions: unit assumed
Proteus morganii = assay: MIC against clinical isolates; format: cell-based; conditions: clinical isolate, unit assumed
β-lactamase = assay: Resistant activity against β-lactamase, iodometric assay; format: biochemical, Pseudomonas aeruginosa GN 238; conditions: relative to Potassium Penicillin G = 100
Description: (3) Resistant activity against β-lactamase, Pseudomonas aergionan GN 238:
The resistant activity of each compound against β-lactamase was measured in the manner described below.
β-Lactamase was prepared from Pseudomonas aeruginosa GN 238. This microorganism was cultured in 100 ml of a medium containing 2 g of yeast extract, 10 g of polypeptone, 2 g of glucose, 7 g of disodium hydrogen phosphate, 2 g of potassium dihydrogen phosphate, 1.2 g of ammonium sulfate and 0.4 g of magnesium sulfate, per liter, in a 500-ml Erlenmeyer flask for 6 hrs. at 37° C with shaking. The resulting cells were collected by centrifugation (5,000 r.p.m. × 10 min.), washed three times with 0.1 M phosphate buffer (pH 7.0). Subsequently, the cells were subjected to sonication (20 KHz, 20 min.) and then centrifuged at 15,000 r.p.m. for 60 min. By using the supernatant of enzyme fluid, the resistance of each compound against β-lactamase was determined by the iodometric assay method. Each numeral shown in Table 7 is a relative activity value calculated by assuming as 100 the activity of the control Potassium Penicillin G.

For `CN1CCN(C(=O)N[C@@H](C(=O)N[C@@H]2C(=O)N3[C@@H]2SC(C)(C)[C@@H]3C(=O)O)c2ccccc2)C(=O)C1=O`, the LD50 [1] was > 5000 mg/kg.
In the case of `CCCCCCCCN1CCN(C(=O)N[C@@H](C(=O)N[C@@H]2C(=O)N3[C@@H]2SC(C)(C)[C@@H]3C(=O)O)c2ccccc2)C(=O)C1=O` (single isomer, unassigned) [compound 47], the MIC (Proteus rettgeri) was 0.79 µg/mL (≈ 1.31 µM), the MIC (Proteus vulgaris) was < 0.4 µg/mL and the MIC (Proteus mirabilis) was < 0.4 µg/mL. For the same molecule, the MIC (Staphylococcus aureus; clinical isolate F-1) was 6.25 µg/mL (≈ 10.4 µM), the MIC (Staphylococcus aureus; clinical isolate F-4) was 12.5 µg/mL (≈ 20.8 µM) and the MIC (Staphylococcus aureus; clinical isolate F-5) was > 200 µg/mL. The MIC (Staphylococcus aureus; clinical isolate MS 8619) was < 0.4 µg/mL, the MIC (Staphylococcus aureus; clinical isolate MS 8713) was 6.25 µg/mL (≈ 10.4 µM) and the MIC (Salmonella typhi-murium; clinical isolate SL 858) was < 0.4 µg/mL. It also gave an MIC (Salmonella typhi-murium; clinical isolate SL 2136) of 50 µg/mL (≈ 83.1 µM), an MIC (Shigella flexneri) of 6.25 µg/mL (≈ 10.4 µM) and an MIC (Shigella sonnei; clinical isolate JS 11232) of 6.25 µg/mL (≈ 10.4 µM). The MIC (Shigella sonnei; clinical isolate JS 11755) was 0.79 µg/mL (≈ 1.31 µM), the MIC (Proteus vulgaris 3027) was < 1.57 µg/mL and the MIC (Escherichia coli NIHJ) was < 1.57 µg/mL. For the same molecule, the MIC (Klebsiella pneumoniae [2]) was < 1.57 µg/mL, the MIC [3] was 6.25 µg/mL (≈ 10.4 µM) and the MIC [4] was < 1.57 µg/mL. For the same molecule, the MIC (Escherichia coli; clinical isolate GN 3435) was 0.79 µg/mL (≈ 1.31 µM), the MIC (Escherichia coli; clinical isolate GN 3465) was 6.25 µg/mL (≈ 10.4 µM) and the MIC (Escherichia coli; clinical isolate GN 3611) was > 200 µg/mL. It also gave an MIC (Escherichia coli; clinical isolate K-3) of 100 µg/mL (≈ 166 µM), an MIC (Escherichia coli; clinical isolate K-4) of 0.79 µg/mL (≈ 1.31 µM) and an MIC (Klebsiella pneumoniae [5]; clinical isolate GN 4081) of 12.5 µg/mL (≈ 20.8 µM). For the same molecule, the MIC (Klebsiella pneumoniae [5]; clinical isolate GN 4117) was 12.5 µg/mL (≈ 20.8 µM), the MIC (Salmonella typhi; clinical isolate SL 819) was 3.13 µg/mL (≈ 5.2 µM) and the MIC (Salmonella typhi; clinical isolate SL 2169) was 1.57 µg/mL (≈ 2.61 µM). It also gave an MIC (Pseudomonas aeruginosa; clinical isolate GN 82) of 12.5 µg/mL (≈ 20.8 µM), an MIC (Pseudomonas aeruginosa; clinical isolate GN 163) of 12.5 µg/mL (≈ 20.8 µM) and an MIC (Pseudomonas aeruginosa; clinical isolate GN 221) of 25 µg/mL (≈ 41.5 µM). The MIC (Pseudomonas aeruginosa; clinical isolate GN 376) was 50 µg/mL (≈ 83.1 µM), the MIC (Pseudomonas aeruginosa; clinical isolate GN 383) was 25 µg/mL (≈ 41.5 µM) and the MIC (Pseudomonas aeruginosa; clinical isolate GN 1035) was 25 µg/mL (≈ 41.5 µM). The MIC (Pseudomonas aeruginosa; clinical isolate GN 1091) was 12.5 µg/mL (≈ 20.8 µM), the MIC (Pseudomonas aeruginosa; clinical isolate GN 2565) was 25 µg/mL (≈ 41.5 µM) and the MIC (Pseudomonas aeruginosa; clinical isolate GN 2987) was 12.5 µg/mL (≈ 20.8 µM). For the same molecule, the MIC (Pseudomonas aeruginosa; clinical isolate GN (number not given; Table 5-3)) was 25 µg/mL (≈ 41.5 µM), the MIC (Pseudomonas aeruginosa; clinical isolate S-1) was 50 µg/mL (≈ 83.1 µM) and the MIC (Pseudomonas aeruginosa; clinical isolate S-2) was 50 µg/mL (≈ 83.1 µM). For the same molecule, the MIC (Pseudomonas aeruginosa; clinical isolate S-3) was 50 µg/mL (≈ 83.1 µM), the MIC (Pseudomonas aeruginosa; clinical isolate S-4) was 50 µg/mL (≈ 83.1 µM) and the MIC (Proteus morganii) was < 0.4 µg/mL. The Relative activity (β-lactamase) was 1%.
